# Measured values reported in US20170363632A1, “Biomarker Kit for Metastatic Breast Cancer Prognosis and Uses Thereof” (University of Maryland, Baltimore, priority 2016, published 2017).
# Entries after “also recorded” stand apart in the source; their conditions may differ.
# B1: HIS-PI3K/p85-SH3 (other, human, UniProt O00459 4-80, looked up)
# chain: PEGFQYRALYPFRRERPEDLELLPGDVLVVSRAALQALGVAEGGERCPQSVGWMPGLNERTRQRGDFPGTYVEFLGP
# notes: domain: Src Homology 3 (SH3) domain; Expressed in bacteria, about 10 kDa; also called His-tagged PI3K/p85-SH3 protein; HIS-PI3K-p85/SH3 domain; not shown: His tag and vector-encoded residues of pET-30a(+)
# Legend:
# [1] = system: obscurin-knockdown MCF10A cells; experiment: Microchannel single cell migration; format: cell-based; set-up: dose or concentration left out as unconfirmed
# Procedure: The microchannel device was fabricated by standard lithography and coated with 20 μg/mL collagen type I (BD Biosciences, San Jose, Calif.) (12-16). Cells were trypsinized, resuspended in serum-containing media to neutralize the trypsin, and subsequently washed in serum-free media. A suspension of 5×10^4 cells was added to the inlet port, and cells were transported along the seeding channel by pressure-driven flow. Within 5 min, the cell suspension was removed and replaced with 100 μL of serum-free media containing the specified concentrations of LY294002, BKM120, or DMSO vehicle control. Serum-containing media with the indicated concentrations of LY294002, BKM120, or DMSO was added to the top-most inlet port, thus forming a chemoattractant gradient. Chambers were placed in an enclosed, humidified microscope stage at 5% CO2 and 37° C. (TIZ, Tokai Hit Co., Japan or Okolab, Italy). […] Instantaneous cell velocity was calculated by dividing each interval displacement by the time interval (20 min), and the mean velocity for a given cell was computed by averaging instantaneous velocities for all time intervals. Chemotactic index was calculated by dividing the end-to-end displacement by the total path length of the cell. […]
# [2] = system: obscurin-knockdown MCF10A cells; experiment: Wound healing assay; format: cell-based; details: DMSO vehicle ≧20%
# Procedure: Wound healing was measured by growing confluent MCF10A cell monolayers stably expressing obscurin shRNA in six-well tissue culture dishes (Corning). A scrape was made through the monolayer with a sterile plastic pipette tip and fresh media containing LY294002, BKM120, or DMSO vehicle control was added at the indicated concentrations. Images were taken with an inverted microscope (10× objective) at time 0 h and after a 6 h incubation period at 37° C., 5% CO2. Migration was expressed as the average of the difference between the measurement at time zero and 6 h obtained from 3 independent experiments.
# [3] = system: obscurin-knockdown MCF10A cells; experiment: Mammosphere culture in ultra-low attachment conditions; format: cell-based; set-up: mammosphere formation: dose or concentration left out as unconfirmed; details: for reduction in mammosphere formation: spheres ≧100 μm
# Procedure: Single MCF10A cells stably transduced with obscurin shRNA were plated in ultralow attachment plates (Corning, Lowell, Mass., USA) at a density of 10,000 cells/mL in 2 mL serum-free growth media (DMEM/F12 with GlutaMAX™), supplemented with insulin (10 μg/mL), hydrocortisone (0.5 μg/mL), cholera toxin (100 ng/mL), epidermal growth factor (20 ng/mL), 1% penicillin-streptomycin and puromycin (1.5 μg/mL). Twenty-four hours following initial plating, cell cultures were supplemented with 2 mL serum-free growth media that contained the indicated concentration of LY294002, BKM120, or DMSO vehicle control every day for 10 days at which time point spheres were measured and those ≧100 μm were counted as tumor spheres.
# [4] = system: adherent MCF10A obscurin-knockdown or scramble control cells; experiment: Cell viability, AlamarBlue assay; format: cell-based; details: different concentrations of BKM120, 24 h
# Procedure: (§1) Cell viability of MCF10A obscurin-knockdown and scramble control cells treated with the specified concentrations of LY294002 and BKM120 inhibitors or vehicle DMSO for 24 h was measured using the AlamarBlue assay (Life Technologies) (9). In brief, the AlamarBlue reagent was added to the cell culture at 10% v/v and incubated for 16 h at 37° C., 5% CO2. The percentage (%) of AlamarBlue reduction was determined by measuring absorbance at 550 and 620 nm. Data are presented as the percentage of AlamarBlue reduced per number of cells.
# [5] = system: PI3K pathway (phosphorylation levels of AKT) in obscurin-knockdown MCF10A cells; experiment: Western blot of AKT phosphorylation after PI3K inhibitor treatment; format: cell-based
# Procedure: (§2) Cell lysates were prepared in radioimmuno-precipitation assay (RIPA) buffer supplemented with cocktails of protease inhibitors (Roche, Mannheim, Germany), and phosphatase inhibitors ([…], 100 mM Sodium Flouride, 115 mM Sodium Molybdate, 100 mM Sodium Orthovanadate, 400 mM Sodium Tartrate Dihydrate, 100 mM β-Glycerophosphate, 100 mM Sodium Pyrophosphate, and 10 mM EGTA). Protein lysates were electrophoresed on SDS-NuPAGE gel (Thermo Fisher Scientific, Waltham, Mass.), transferred to nitrocellulose membranes, and probed with primary antibodies as specified in the text, and the appropriate […] secondary antibodies (Jackson ImmunoResearch Laboratories). Immunoreactive bands were visualized using AMERSHAM ECL prime western blotting detection reagent (GE Healthcare Life Sciences), and densitometry was performed with Image J software. Treatment of cells followed by lysate preparation and immunoblotting analysis was repeated at least three independent times.
# (§3) To verify the effectiveness of the two inhibitors in suppressing the PI3K pathway, whether the phosphorylation levels of AKT were reduced following treatment was examined. […] Whether inhibition of PI3K reverses epithelial to mesenchymal transition in obscurin-knockdown cells was evaluated.
# [6] = system: obscurin-knockdown MCF10A cells; experiment: Matrigel invasion assay; format: cell-based; details: dose-dependent, 16 h
# Procedure: Invasion was measured by adding 250,000 cells suspended in 0.5 mL growth media containing the specified concentration of LY294002, BKM120, or DMSO vehicle control to the upper chamber of a Matrigel-coated invasion chamber (BD Biosciences, San Jose, Calif.). The lower chamber contained growth media supplemented with 10% FBS. The inserts were incubated at 37° C., 5% CO2 for 16 h. At the end of the 16 h incubation period, the cells that had invaded in the lower chamber were fixed and stained with 0.5% crystal violet in 20% methanol. The number of invaded cells was quantified by counting at least 6 random fields from 3 independent experiments under an inverted light microscope (Olympus IX51) with a 10× objective.
# [7] = system: MCF10A obscurin-knockdown cells; experiment: Bright-field microscopy of cell morphology and cell-cell junctions; format: cell-based; details: 1 mM BKM120
# Excerpt: Taken together, these findings indicate that blockade of the PI3K pathway in obscurin-depleted breast epithelial cells via pharmacological treatment or molecular means effectively reverses epithelial to mesenchymal transition.
# [8] = system: obscurin-knockdown MCF10A cells; experiment: Western blot of epithelial and mesenchymal (EMT) proteins after PI3K inhibitor treatment; format: cell-based
# Procedure: as §2, §3
# [9] = Cell viability, AlamarBlue assay; format: cell-based; details: human, adherent MCF10A obscurin-knockdown or scramble control cells; 25 µM LY294002, 24 h; read-out: decrease in cell viability (reduction of AlamarBlue)
# Procedure: as §1
# [10] = target: T1, GST-obscurin-PH (human, UniProt Q5VST9 5895-6004); experiment: SPR, Biacore 3000; GST-obscurin-PH immobilized on CM5 chip, HIS-PI3K/p85-SH3 as analyte at 8-250 nM; 1:1 Langmuir model
# T1 construct: domain: Pleckstrin Homology (PH) domain; Expressed in bacteria, about 37 kDa; also called GST-obscurin-PH domain; recombinant obscurin-PH domain fused to GST; not shown: glutathione-S-transferase (GST) tag encoded by the PGEX vector (GE Healthcare)
# T1 sequence (looked up): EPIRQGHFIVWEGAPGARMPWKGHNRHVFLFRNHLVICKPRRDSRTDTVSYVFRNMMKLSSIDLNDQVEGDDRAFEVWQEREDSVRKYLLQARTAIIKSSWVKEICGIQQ
# Procedure: Surface plasmon resonance was performed using a BiaCore 3000 instrument as described (6, 19, 21). In particular, the GST-obscurin-PH domain was used as ligand and was immobilized on a carboxymethyl-dextran sensor (CM5) chip, while the HIS-PI3K-p85/SH3 domain was used as analyte at varying concentrations ranging from 8-250 nM. The flow rate for analyte injection was 20 μl/min. For each analyte concentration, association was measured for 180 sec and dissociation was measured over another 180 sec. Data were evaluated with the 1:1 Langmuir model and the Heterogeneous Ligand model (BIAevaluation Software 3.1, Biacore). The association (kₐ, M⁻¹ s⁻¹) and dissociation (kd, s⁻¹) rate constants as well as the association (KA, M⁻¹) and dissociation (KD, M) equilibrium constants were determined.
# [11] = target: T2, control GST-protein (UniProt P08515 1-218 = GST); experiment: GST pull-down on glutathione-Sepharose beads, immunoblot with His-tag antibody
# T2 construct: Negative control in the GST pull-down; also called GST-alone
# Procedure: GST-pull down assays were performed (19, 20). Equivalent amounts of control GST-protein and GST-obscurin-PH were bound to glutathione-Sepharose beads and incubated with 3 mg/mL of His-tagged PI3K/p85-SH3 protein overnight at 4° C. in pull-down buffer (50 mM Tris, pH 7.5, 120 mM NaCl, 10 mM NaN3, 2 mM DTT, and 0.5% Tween). At the end of the incubation period, beads were washed five times with wash buffer (PBS with 10 mM NaN3 and 0.1% Tween), and bound proteins were eluted with 2× LDS buffer (Invitrogen), followed by boiling at 95° C. for 10 min and separation on a 4-12% bis-Tris gel. A His6-antibody (sc-803, Santa Cruz Biotechnology) was used for detection of immunoreactive bands with the Tropix chemiluminescence detection kit (Applied Biosystems).
# T2 sequence (P08515 whole entry): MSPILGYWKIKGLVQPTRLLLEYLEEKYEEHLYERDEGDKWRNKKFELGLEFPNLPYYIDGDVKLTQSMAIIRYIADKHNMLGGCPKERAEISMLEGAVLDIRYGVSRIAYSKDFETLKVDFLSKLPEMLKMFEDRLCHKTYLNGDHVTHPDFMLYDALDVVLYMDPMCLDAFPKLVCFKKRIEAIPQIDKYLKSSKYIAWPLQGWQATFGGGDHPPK
molecule,measurement,setting,value
Nc1cc(C(F)(F)F)c(-c2cc(N3CCOCC3)nc(N3CCOCC3)n2)cn1 [BKM120],migration speed compared to DMSO treated cells,"[1]; microchannels 6, 10, 20 and 50 mm wide",significantly reduced migration
same,chemotactic index (CI) relative to vehicle control,[1]; statistically significant in narrow channels (6 mm),lower chemotactic index
same,wound healing,"[2]; 1 mM BKM120, after 6 h",~6%
same,reduction in mammosphere formation,"[3]; 0.1 mM BMK120, 10 days",18%
same,reduction in mammosphere formation,"[3]; 0.5 mM BMK120, 10 days",89%
same,mammosphere formation,"[3]; BKM120, 10 days",completely eliminated mammosphere formation
same,cell viability (reduction of AlamarBlue) versus vehicle DMSO,[4],No significant changes; also recorded: did not affect their survival and growth
same,phosphorylation level of AKT at serine-473 compared to vehicle DMSO,[5]; 1 μM BKM120,0.3 fold
same,phosphorylation level of AKT at threonine-308 compared to vehicle DMSO,[5]; 1 μM BKM120,0.1 fold
same,reduction in cell invasiveness relative to DMSO,[6]; BKM120 0-1 mM,15-60%
same,cell morphology and cell-cell junction formation,[7],(re)acquired an epithelial appearance and were able to form cell-cell junctions
same,expression level of E-cadherin (increase),[8]; 1 μM BKM120,2.1 fold
same,expression level of N-cadherin (decrease),[8]; 1 μM BKM120,0.5 fold
same,expression level of Slug (decrease),[8]; 1 μM BKM120,0.3 fold
same,expression level of Twist (decrease),[8]; 1 μM BKM120,0.5 fold
same,expression level of β-catenin (increase),[8]; 1 μM BKM120,5 fold
O=c1cc(N2CCOCC2)oc2c(-c3ccccc3)cccc12 [LY294002],wound healing,"[2]; 25 mM LY294002, after 6 h",~6%
same,reduction in mammosphere formation,"[3]; 5 mM LY294002, 10 days",36%
same,reduction in mammosphere formation,"[3]; 10 mM LY294002, 10 days",58%
same,"cytotoxicity at 24 h, 25 µM",[9],~5%
same,phosphorylation level of AKT at serine-473 compared to vehicle DMSO,[5]; 25 μM LY294002,0.4 fold
same,phosphorylation level of AKT at threonine-308 compared to vehicle DMSO,[5]; 25 μM LY294002,0.4 fold
same,reduction in cell invasiveness relative to DMSO,[6]; LY294002 0-25 mM,50-95%
same,expression level of E-cadherin (increase),[8]; 25 μM LY294002,1.8 fold
same,expression level of N-cadherin (decrease),[8]; 25 μM LY294002,0.3 fold
same,expression level of Slug (decrease),[8]; 25 μM LY294002,0.6 fold
same,expression level of Twist (decrease),[8]; 25 μM LY294002,0.4 fold
same,expression level of β-catenin (increase),[8]; 25 μM LY294002,1.3 fold
B1,Kd,[10],~50 nM
same,binding result,[11],no binding (tested: 3 mg/mL of His-tagged PI3K/p85-SH3)
